Reference: ChEMBL document CHEMBL1201862, “PubChem BioAssay data set” (2004)
Active and inactive are the calls of the source.

Experiments:
[1] = biological target: 72 kDa type IV collagenase (Homo sapiens, UniProt P08253); experiment: Dose Response validation of uHTS RPN11 inhibitor hits using a MMP-2 Fluorescence assay.; assay type: functional
[2] = biological target: 26S proteasome non-ATPase regulatory subunit 14 (Homo sapiens, UniProt O00487); experiment: inhibition of proteasome subunit RPN11 – biochemical, fluorescence polarization, uHTS hits, confirmation (AID 602368); assay type: functional
26S proteasome non-ATPase regulatory subunit 14, sequence (O00487 whole entry): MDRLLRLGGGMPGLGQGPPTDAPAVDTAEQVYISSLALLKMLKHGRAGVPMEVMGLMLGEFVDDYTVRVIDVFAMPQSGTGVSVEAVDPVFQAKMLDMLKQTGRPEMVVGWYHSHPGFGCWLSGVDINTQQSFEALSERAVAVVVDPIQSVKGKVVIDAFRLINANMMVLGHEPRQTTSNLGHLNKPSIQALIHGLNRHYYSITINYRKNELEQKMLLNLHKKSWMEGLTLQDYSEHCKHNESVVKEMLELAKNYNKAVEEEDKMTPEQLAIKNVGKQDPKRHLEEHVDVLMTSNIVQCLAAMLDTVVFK

[3] = biological target: Prothrombin (Bos taurus, UniProt P00735); experiment: thrombin inhibition, dose response, biochemical, fluorescence polarization, uHTS hits (AID 602369); assay type: functional
[4] = biological target: T1, Apoptotic protease-activating factor 1 (Homo sapiens, UniProt O14727); experiment: SAR analysis of small molecule Activators of Apaf-1 in a Fluorescent assay.; assay type: functional; details: read-out: EC50_Mean;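 note: caspase-3 cleavage of fluorogenic Rh110 DEVD substrate downstream of apoptosome activation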
T1 sequence (O14727 whole entry): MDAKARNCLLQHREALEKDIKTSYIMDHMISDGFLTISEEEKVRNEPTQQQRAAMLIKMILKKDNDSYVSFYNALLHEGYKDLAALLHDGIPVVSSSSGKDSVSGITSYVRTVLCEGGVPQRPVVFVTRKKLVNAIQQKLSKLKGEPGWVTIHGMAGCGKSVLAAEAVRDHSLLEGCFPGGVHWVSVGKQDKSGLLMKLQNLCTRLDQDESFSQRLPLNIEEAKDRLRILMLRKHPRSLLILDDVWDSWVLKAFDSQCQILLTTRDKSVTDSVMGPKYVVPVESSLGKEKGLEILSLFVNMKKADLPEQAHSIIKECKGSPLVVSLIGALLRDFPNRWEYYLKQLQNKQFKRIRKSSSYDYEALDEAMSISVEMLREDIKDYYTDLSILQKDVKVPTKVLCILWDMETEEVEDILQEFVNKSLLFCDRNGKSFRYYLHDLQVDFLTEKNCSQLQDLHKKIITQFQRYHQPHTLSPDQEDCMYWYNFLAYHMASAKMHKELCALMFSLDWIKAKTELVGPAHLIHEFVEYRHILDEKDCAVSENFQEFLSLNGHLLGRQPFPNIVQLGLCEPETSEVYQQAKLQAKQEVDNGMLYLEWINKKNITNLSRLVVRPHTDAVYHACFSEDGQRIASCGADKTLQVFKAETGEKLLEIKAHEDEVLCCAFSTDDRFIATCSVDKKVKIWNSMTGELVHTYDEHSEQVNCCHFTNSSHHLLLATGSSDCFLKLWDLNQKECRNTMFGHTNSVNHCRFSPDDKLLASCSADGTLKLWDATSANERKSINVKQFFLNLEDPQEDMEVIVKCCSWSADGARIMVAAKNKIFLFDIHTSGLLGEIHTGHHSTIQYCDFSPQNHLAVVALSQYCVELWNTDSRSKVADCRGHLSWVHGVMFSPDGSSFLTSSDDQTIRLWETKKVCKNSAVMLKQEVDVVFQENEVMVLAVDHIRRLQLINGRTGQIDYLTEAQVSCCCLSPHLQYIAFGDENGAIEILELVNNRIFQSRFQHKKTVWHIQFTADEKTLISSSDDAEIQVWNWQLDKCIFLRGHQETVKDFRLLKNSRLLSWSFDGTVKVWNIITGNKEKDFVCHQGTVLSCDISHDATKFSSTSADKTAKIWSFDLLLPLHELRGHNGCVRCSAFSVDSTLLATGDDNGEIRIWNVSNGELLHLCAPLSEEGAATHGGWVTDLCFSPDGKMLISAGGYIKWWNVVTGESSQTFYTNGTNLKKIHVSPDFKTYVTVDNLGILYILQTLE

[5] = HepG2 cell cytotoxicity, dose response, cytotoxicity control for Shn3 inhibitor project, CellTiter-Glo, cherry-picked (AID 624134); assay type: functional, cell-based
[6] = biological target: T2, Fatty acid synthase (Homo sapiens, UniProt P49327); experiment: FAS thioesterase domain inhibitors, dose response, biochemical, endpoint fluorescence intensity, uHTS hits (AID 624327); assay type: functional;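 note: fluorescence from hydrolysis of an O-methyl fluorescein acyl ester substrate by the enzyme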
T2 sequence (P49327 whole entry, the tested form may be a part): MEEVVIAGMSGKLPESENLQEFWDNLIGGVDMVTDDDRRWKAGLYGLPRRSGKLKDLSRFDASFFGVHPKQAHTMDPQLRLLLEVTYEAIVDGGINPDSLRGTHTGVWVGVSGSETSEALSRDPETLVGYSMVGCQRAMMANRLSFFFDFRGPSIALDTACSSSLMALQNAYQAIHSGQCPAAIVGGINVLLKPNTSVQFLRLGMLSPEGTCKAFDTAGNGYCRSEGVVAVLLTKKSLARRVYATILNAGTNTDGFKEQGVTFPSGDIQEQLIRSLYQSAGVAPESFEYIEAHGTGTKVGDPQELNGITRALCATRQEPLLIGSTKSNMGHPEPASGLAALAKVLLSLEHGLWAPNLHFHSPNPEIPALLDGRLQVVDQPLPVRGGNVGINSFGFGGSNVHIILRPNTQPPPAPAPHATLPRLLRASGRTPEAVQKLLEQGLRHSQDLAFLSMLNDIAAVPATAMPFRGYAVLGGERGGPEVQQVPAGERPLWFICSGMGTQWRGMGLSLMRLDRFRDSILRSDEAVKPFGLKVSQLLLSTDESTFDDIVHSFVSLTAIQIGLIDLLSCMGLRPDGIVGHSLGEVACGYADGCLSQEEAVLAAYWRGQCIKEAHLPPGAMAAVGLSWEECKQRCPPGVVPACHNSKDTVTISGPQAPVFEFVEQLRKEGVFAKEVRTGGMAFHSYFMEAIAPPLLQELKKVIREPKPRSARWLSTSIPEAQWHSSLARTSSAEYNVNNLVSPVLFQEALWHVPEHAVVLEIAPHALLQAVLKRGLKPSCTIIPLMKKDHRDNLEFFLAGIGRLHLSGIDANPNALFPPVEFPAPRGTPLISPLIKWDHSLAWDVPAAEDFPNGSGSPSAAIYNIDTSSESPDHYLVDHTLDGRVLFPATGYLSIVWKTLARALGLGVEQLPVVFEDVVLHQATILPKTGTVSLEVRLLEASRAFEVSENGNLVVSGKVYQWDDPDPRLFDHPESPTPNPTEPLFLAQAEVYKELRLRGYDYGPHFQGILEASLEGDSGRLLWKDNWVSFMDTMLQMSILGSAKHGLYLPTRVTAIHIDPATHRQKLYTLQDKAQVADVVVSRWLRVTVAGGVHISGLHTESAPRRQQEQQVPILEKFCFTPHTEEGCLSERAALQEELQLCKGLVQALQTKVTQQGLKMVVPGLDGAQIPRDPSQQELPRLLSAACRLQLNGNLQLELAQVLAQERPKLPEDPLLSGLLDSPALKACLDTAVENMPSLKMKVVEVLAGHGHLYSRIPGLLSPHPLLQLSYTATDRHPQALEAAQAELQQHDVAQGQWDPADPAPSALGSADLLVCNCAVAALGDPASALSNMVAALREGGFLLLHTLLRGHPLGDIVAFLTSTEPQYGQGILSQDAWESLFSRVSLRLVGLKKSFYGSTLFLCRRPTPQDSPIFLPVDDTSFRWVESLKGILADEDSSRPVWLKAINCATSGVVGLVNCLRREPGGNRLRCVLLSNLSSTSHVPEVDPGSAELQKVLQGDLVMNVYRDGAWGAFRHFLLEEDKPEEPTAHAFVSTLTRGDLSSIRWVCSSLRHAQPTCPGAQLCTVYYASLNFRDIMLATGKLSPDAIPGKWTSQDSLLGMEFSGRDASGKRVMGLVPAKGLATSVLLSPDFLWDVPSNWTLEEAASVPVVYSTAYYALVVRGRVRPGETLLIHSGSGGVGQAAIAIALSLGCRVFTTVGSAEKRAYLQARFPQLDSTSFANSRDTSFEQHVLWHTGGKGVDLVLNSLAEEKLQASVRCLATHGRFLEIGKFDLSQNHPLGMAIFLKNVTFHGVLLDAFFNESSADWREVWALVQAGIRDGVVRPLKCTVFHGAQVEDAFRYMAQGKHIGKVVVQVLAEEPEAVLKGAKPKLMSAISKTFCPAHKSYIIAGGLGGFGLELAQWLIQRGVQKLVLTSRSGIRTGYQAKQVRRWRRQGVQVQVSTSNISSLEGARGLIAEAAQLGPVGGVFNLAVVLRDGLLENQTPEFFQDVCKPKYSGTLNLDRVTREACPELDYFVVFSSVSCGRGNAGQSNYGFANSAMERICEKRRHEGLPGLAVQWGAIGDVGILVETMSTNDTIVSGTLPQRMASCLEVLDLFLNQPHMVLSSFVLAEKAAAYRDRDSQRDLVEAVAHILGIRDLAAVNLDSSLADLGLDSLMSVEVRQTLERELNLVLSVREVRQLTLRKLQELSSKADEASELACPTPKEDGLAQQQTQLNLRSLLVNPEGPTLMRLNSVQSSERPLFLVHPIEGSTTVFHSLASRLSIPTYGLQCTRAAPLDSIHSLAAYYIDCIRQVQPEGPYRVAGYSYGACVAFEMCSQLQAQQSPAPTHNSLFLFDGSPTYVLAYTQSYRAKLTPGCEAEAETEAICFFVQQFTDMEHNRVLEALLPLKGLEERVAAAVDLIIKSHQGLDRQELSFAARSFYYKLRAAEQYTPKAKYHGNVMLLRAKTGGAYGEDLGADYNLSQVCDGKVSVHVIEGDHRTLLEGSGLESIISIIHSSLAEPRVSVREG

[7] = growth suppression of PTEN-null colon cells, dose response, cell-based, HCT116 PTEN knockout (AID 1047); assay type: functional;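 note: HCT116 colon tumor cells with PTEN knocked out; cells exposed to compound for 60 hours before readout; potency for loss of cell viability measured by luminescence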
[8] = Shn3 3'UTR reporter inhibitors, dose response, cell-based, Clone20 osteoblasts, firefly luciferase, cherry-picked (AID 624132); assay type: functional;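 note: firefly luciferase luminescence from reporter carrying the Shn3 3'UTR in osteoblasts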
[9] = biological target: T2, Fatty acid synthase; experiment: FAS thioesterase domain inhibitors, dose response, biochemical, kinetic fluorescence intensity (AID 624326); assay type: functional;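 note: rate of fluorescence rise from hydrolysis of a fluorogenic O-methyl fluorescein ester substrate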
[10] = biological target: T3, High affinity choline transporter 1 (Homo sapiens, UniProt Q9GZV3); experiment: CHT inhibitors, dose response, cell-based, 10-point CRC, membrane potential dye (AID 588401); assay type: functional;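 note: membrane potential dye fluorescence of choline-evoked depolarization via CHT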
T3 sequence (Q9GZV3 whole entry): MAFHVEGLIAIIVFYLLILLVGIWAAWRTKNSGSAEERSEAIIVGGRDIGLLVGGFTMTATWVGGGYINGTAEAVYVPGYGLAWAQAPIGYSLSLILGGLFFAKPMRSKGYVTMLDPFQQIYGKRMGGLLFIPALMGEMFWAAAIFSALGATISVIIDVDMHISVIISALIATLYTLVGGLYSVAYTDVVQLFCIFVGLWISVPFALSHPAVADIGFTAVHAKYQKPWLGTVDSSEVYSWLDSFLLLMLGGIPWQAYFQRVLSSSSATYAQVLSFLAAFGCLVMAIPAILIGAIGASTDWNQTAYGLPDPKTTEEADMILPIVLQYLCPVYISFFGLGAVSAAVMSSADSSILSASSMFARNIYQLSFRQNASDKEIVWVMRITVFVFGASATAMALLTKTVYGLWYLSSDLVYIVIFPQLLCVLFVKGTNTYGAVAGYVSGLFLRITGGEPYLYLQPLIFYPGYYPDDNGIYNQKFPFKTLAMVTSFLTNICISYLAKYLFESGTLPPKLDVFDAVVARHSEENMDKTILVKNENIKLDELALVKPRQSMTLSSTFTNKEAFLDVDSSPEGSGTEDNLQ

[11] = biological target: T3, High affinity choline transporter 1; experiment: CHT inhibitors, dose response, cell-based, 5-point CRC, membrane potential dye (AID 504840); assay type: functional
[12] = growth suppression of beta-catenin-knockout colon cells, dose response, cell-based, HCT116, human colon tumor (AID 1045); assay type: functional;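 note: HCT116 colon tumor cells with beta catenin knocked out; cells exposed to compound for 60 hours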
[13] = control 3'UTR Renilla luciferase suppression, dose response, counter-screen for Shn3 inhibitor project, cell-based, Clone20-Shn3RL, cherry-picked (AID 624133); assay type: functional
[14] = biological target: T4, Carboxy-terminal domain RNA polymerase II polypeptide A small phosphatase 1 (Homo sapiens, UniProt Q9GZU7); experiment: inhibitors of CTDSP1, concentration-response testing, biochemical assay, absorbance-based, actives from ultra-high-throughput screening (AID 540297); assay type: functional
T4 sequence (Q9GZU7 whole entry): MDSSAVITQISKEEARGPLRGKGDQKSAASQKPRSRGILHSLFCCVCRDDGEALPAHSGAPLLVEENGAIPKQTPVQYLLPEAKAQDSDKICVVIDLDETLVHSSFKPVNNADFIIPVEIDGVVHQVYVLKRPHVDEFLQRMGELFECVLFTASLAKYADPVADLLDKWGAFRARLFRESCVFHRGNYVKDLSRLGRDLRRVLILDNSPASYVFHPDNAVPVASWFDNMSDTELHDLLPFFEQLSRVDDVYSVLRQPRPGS

[15] = biological target: DNA (cytosine-5)-methyltransferase 1 (Homo sapiens, UniProt P26358); experiment: DNMT1 methyltransferase inhibitors, confirmation, biochemical, fluorescent molecular beacon (AID 602386); assay type: functional
[16] = biological target: Estrogen receptor beta (Homo sapiens, UniProt Q92731); experiment: ERβ–SRC-3 coactivator interaction inhibitors, confirmation, orthogonal assay, biochemical, ELISA, streptavidin-HRP readout (AID 1060)
Estrogen receptor beta, sequence (Q92731 whole entry): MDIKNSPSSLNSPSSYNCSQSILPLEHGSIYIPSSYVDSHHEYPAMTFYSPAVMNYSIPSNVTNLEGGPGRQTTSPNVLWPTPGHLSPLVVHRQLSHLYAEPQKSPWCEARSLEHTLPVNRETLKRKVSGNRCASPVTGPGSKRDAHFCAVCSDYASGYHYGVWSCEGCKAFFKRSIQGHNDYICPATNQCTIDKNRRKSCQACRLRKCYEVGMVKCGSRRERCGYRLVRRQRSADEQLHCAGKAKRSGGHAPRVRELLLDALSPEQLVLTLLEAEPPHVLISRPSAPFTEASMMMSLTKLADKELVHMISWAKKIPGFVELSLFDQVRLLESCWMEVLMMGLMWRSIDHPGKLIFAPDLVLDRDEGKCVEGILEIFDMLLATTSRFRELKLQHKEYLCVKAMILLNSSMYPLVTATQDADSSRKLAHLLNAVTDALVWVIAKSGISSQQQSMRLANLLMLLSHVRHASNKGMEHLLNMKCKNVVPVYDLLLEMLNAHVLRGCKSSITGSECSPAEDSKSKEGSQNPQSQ

[17] = NIH-3T3 fibroblast cytotoxicity, dose response, cytotoxicity control for antifungal single agent project, cell-based, Alamar Blue, dry powder (AID 602188); assay type: functional
[18] = biological target: Phospholipase A2 (Homo sapiens, UniProt P04054); assay type: functional;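 note: confirmatory dose-response counterscreen on phospholipase A2, testing hits that came from an ultra-high-throughput screen for ATG4B inhibitors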
Phospholipase A2, sequence (P04054 whole entry): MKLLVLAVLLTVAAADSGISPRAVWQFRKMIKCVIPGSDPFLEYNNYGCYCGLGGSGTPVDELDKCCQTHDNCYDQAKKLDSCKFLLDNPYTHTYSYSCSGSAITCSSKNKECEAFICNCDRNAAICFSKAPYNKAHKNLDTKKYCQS

[19] = biological target: T5, Cysteine protease ATG4B (Homo sapiens, UniProt Q9Y4P1); assay type: functional;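 note: Fluorescence-based dose-response confirmation assay measuring inhibition of ATG4B activity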
T5 sequence (Q9Y4P1 whole entry): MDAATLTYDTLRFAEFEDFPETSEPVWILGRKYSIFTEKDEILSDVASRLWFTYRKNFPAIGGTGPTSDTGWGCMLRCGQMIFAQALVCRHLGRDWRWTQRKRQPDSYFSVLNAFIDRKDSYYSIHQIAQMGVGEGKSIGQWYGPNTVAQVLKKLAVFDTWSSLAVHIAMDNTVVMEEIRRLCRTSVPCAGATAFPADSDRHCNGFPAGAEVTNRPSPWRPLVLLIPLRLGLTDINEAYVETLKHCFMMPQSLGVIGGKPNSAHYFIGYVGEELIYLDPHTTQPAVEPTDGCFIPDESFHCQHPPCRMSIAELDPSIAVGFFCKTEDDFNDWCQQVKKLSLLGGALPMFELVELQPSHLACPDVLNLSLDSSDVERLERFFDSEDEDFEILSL

[20] = AlphaScreen signal interference compounds, dose response, artefact control for ARNT-TACC3 interaction inhibitor project, biochemical, luminescence, cherry-pick (AID 651705); assay type: functional;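 note: AlphaScreen bead proximity signal that flags compounds interfering with the detection technology; potency reflects signal decrease which marks the compound as an assay artifact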
[21] = HeLa 4N DNA content increase, dose response, cell-based, IC50 (AID 1117351); assay type: functional
[22] = biological target: DNA repair and recombination protein RAD54-like (Homo sapiens, UniProt Q92698); experiment: inhibitors of human RAD54 branch migration, confirmation, biochemical, fluorescence, cherry-picked samples, dose series (AID 651657); assay type: functional
[23] = HeLa 2N DNA content increase, dose response, cell-based, IC50 (AID 1117349); assay type: functional
[24] = biological target: T6, DNA repair protein RAD52 homolog (Homo sapiens, UniProt P43351); assay type: functional, biochemical
T6 sequence (P43351 whole entry): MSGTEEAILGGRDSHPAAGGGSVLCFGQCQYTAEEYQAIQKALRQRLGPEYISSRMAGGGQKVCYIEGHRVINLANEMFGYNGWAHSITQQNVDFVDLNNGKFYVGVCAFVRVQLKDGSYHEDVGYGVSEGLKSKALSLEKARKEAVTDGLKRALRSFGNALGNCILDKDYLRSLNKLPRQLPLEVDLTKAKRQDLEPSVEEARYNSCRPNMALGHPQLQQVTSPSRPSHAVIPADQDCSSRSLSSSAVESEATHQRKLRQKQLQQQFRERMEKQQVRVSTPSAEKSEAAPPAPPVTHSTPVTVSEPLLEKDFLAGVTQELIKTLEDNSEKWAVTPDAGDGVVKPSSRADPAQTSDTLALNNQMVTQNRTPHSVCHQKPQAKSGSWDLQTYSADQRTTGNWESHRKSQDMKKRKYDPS

[25] = biological target: Protein Wnt-3a (Mus musculus, UniProt P27467); experiment: Wnt3a-driven reporter signaling inhibition, dose response, selectivity assay for Gli-SUFU antagonist project, Wnt-LIGHT cells, luminescence (AID 651570); assay type: functional; details: read-out: IC50_Mean;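 note: Wnt-LIGHT reporter cells stimulated with conditioned medium from Wnt3a-producing cells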
Protein Wnt-3a, sequence (P27467 whole entry): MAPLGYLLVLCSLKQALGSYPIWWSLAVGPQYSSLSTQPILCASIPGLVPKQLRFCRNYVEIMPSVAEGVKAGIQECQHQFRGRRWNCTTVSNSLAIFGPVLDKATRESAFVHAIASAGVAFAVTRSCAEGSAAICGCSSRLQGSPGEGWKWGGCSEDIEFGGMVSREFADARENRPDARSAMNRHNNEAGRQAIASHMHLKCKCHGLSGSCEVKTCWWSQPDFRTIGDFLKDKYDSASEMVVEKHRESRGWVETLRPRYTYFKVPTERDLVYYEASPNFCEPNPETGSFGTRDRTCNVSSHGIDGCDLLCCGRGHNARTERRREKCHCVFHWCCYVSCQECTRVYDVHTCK

72 kDa type IV collagenase, sequence (P08253 whole entry): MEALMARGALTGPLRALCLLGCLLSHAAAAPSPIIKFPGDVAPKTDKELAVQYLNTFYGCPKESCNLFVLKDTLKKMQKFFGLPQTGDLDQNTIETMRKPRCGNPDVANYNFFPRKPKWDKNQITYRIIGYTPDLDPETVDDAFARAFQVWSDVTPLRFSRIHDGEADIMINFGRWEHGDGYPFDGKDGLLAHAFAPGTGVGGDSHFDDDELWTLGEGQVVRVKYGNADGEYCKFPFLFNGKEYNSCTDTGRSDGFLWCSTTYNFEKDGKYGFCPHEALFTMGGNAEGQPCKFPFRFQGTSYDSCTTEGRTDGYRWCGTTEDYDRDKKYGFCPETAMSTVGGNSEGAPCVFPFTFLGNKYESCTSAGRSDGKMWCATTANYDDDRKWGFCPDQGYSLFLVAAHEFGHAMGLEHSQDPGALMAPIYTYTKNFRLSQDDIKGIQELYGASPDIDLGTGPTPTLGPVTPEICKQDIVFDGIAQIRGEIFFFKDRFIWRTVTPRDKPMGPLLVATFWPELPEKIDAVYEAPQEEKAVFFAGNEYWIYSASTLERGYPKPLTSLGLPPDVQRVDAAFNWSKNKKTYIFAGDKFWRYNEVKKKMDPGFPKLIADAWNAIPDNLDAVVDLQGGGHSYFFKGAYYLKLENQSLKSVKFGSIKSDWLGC

CCC(C)Sc1ccc([C@@H]2[C@H]3C(=O)N(CC)C(=O)[C@H]3[C@]3(C(=O)OC)CCCCN23)cc1 (some centres not stated)
IC50 [1]: > 100 µM (inactive)
IC50 [2]: 69 µM (active)
IC50 [3]: 47.8 µM (active)

O=C(O)c1coc(-c2cc3ccccc3s2)n1
EC50 [4]: > 100 µM (inactive)

CCCCn1c(CN2CCN(c3ccccc3)CC2)nc2c1c(=O)n(C)c(=O)n2C
AC50 [5]: 6.34 µM (active)
IC50 [6]: 15.3 µM (active)
EC50 [7]: 38.9 µM (active)
AC50 [8]: 2.05 µM (active)
IC50 [9]: 21.5 µM (inactive)
IC50 [10]: 1.96 µM (active)
IC50 [11]: 4.27 µM (active)
EC50 [12]: 21.9 µM (active)
AC50 [13]: 1.27 µM (active)

Cc1ccc(C(=O)O)cc1-c1ccc(/C=C2/NC(=O)N(c3ccccc3)C2=O)o1
IC50 [14]: 4.1 µM (active)
IC50 [15]: 11 µM (active)
IC50 [1]: 29.3 µM (active)
IC50 [2]: 16.3 µM (active)
IC50 [3]: 33.9 µM (active)
IC50 [16]: > 50 µM (not active)

Oc1c(C(c2ccc(Cl)cc2)N2CCCC2)ccc2cccnc12 (configuration not stated)
AC50 [17]: 1.71 µM (active)

COc1ccccc1CNC(=O)c1ccccc1OCc1ccc(F)cc1
IC50 [18]: 49.5 µM (inactive)
IC50 [19]: 43.6 µM (inactive)

CC(=O)[C@H]1[C@@H]2C(=O)N(c3cccc(Cl)c3)C(=O)[C@@H]2[C@H]2c3ccccc3C=CN21
AC50 [20]: 122 µM (active)

Cc1c(Cl)c([N+](=O)[O-])nn1Cc1ccc(C(=O)Nc2ccc(Cl)cn2)o1
IC50 [18]: 11.1 µM (active)
IC50 [19]: 22.5 µM (inactive)

CCCC(=O)NC(=S)Nc1cccc(NC(=O)c2ccccc2Cl)c1
IC50 [10]: 6.96 µM (active)
IC50 [11]: 10.3 µM (active)

CCN(CC)CCNc1ccc(CO)c2sc3ccccc3c(=O)c12 [HYCANTHONE]
IC50 [21]: > 10 µM (inactive)
AC50 [22]: 6.95 µM (active)
IC50 [23]: 5.68 µM (inactive)
AC50 [24]: 9.33 µM (active)

O=C(N[C@@H]1C/C=C\C[C@H](CC(=O)N(CCO)Cc2ccccc2)C(=O)N[C@@H](Cc2c[nH]c3ccccc23)COC1=O)OCC1c2ccccc2-c2ccccc21
IC50 [25]: 8.54 µM (active)
